The source of these data is ChEMBL document CHEMBL5465560, “Selectivity Literature for EUbOPEN Chemogenomic Library” (2024).

SMILES strings stand for the structures. Some results are limits rather than exact numbers.

The target in assay [1] is T1, Serine/threonine-protein kinase Sgk2 (Homo sapiens) (UniProt Q9HBY8).
T1 sequence (whole entry): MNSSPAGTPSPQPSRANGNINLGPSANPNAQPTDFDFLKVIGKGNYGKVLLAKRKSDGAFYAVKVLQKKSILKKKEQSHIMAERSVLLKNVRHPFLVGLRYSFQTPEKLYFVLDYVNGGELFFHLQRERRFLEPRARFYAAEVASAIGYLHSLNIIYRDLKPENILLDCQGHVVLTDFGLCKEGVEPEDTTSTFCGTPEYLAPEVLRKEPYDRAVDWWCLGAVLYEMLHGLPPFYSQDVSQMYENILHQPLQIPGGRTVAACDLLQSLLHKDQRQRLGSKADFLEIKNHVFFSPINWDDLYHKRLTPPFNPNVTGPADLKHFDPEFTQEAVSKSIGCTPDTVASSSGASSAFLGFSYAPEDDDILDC
Put plainly: Selectivity interaction (Kinase panel (Z-LYTE Assay)) EUB0001632a SGK2. As to conditions: at 10 µM.

The target of assay [2] is Receptor-type tyrosine-protein kinase FLT3 (Homo sapiens) (UniProt P36888). As to the kind of experiment: Selectivity interaction (KinomeScan (DiscoverX)) EUB0001619a FLT3. As to conditions: at 1 µM.
Chain of Receptor-type tyrosine-protein kinase FLT3 (Homo sapiens) (P36888 whole entry): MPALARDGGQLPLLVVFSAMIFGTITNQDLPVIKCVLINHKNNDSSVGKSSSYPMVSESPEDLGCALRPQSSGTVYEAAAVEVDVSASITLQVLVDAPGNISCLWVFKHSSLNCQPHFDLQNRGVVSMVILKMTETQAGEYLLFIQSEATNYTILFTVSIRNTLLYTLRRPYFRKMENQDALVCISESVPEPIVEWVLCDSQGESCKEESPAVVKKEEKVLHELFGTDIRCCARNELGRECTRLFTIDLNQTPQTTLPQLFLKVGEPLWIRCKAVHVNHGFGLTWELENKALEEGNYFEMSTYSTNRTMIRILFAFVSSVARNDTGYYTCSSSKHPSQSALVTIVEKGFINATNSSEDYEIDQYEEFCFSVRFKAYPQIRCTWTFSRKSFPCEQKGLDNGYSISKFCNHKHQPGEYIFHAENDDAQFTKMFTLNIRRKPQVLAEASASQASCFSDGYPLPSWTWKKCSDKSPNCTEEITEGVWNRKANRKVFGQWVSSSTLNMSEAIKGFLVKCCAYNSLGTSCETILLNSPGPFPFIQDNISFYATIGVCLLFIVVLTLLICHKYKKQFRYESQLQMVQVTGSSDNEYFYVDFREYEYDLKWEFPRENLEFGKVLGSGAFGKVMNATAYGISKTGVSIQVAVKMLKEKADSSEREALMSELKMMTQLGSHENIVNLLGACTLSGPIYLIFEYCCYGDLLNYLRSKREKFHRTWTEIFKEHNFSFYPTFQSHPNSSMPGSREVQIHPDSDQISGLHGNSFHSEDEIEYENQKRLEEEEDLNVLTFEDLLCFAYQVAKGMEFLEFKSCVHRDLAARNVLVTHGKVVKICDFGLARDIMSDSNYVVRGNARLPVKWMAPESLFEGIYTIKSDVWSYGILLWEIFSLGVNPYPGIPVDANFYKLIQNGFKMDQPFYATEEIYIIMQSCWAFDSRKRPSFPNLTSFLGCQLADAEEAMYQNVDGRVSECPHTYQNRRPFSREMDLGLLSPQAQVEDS
The target in assay [3] is Mitogen-activated protein kinase kinase kinase kinase 5 (Homo sapiens) (UniProt Q9Y4K4). As to conditions: at 10 µM.
The target in assay [4] is Protein-tyrosine kinase 6 (Homo sapiens, UniProt Q13882). Put plainly: Selectivity interaction (KinomeScan (DiscoverX)) EUB0000607a PTK6. As to conditions: at 10 µM.
Chain of Protein-tyrosine kinase 6 (Q13882 whole entry, looked up): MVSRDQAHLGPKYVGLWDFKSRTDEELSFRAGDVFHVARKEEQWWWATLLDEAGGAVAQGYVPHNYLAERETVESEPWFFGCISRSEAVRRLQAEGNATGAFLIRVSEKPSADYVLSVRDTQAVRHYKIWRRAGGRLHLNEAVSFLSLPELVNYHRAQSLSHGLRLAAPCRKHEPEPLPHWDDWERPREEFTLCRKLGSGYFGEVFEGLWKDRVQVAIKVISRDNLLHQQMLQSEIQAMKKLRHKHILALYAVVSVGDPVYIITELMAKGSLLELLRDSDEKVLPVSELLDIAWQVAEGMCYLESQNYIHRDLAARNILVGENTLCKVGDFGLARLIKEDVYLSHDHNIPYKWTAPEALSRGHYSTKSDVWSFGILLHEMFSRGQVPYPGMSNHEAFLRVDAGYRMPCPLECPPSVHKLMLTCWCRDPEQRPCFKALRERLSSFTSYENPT
Assay [5] deals with T2, Serine/threonine-protein kinase Sgk3 (Homo sapiens) (UniProt Q96BR1).
T2 sequence (whole entry): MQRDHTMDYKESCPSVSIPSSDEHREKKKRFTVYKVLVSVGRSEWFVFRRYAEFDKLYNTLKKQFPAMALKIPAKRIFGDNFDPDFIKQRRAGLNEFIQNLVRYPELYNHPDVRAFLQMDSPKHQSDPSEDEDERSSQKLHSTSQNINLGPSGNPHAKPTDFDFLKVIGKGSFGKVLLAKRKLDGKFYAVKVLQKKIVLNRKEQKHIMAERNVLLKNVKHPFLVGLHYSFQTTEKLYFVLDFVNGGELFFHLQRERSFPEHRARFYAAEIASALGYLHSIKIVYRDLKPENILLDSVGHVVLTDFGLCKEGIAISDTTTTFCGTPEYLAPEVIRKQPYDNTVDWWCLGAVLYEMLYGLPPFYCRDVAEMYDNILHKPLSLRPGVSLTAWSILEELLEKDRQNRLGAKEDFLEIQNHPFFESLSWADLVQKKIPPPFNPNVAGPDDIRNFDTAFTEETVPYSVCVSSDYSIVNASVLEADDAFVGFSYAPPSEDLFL
Put plainly: Selectivity interaction (Kinase screening (Nanosyn)) EUB0000604a SGK3.

For assay [6], the target named is Maternal embryonic leucine zipper kinase (Homo sapiens) (UniProt Q14680). As to the kind of experiment: Selectivity interaction (KinomeScan (DiscoverX)) EUB0000045b MELK.
Chain of Maternal embryonic leucine zipper kinase (Homo sapiens) (Q14680 whole entry, looked up): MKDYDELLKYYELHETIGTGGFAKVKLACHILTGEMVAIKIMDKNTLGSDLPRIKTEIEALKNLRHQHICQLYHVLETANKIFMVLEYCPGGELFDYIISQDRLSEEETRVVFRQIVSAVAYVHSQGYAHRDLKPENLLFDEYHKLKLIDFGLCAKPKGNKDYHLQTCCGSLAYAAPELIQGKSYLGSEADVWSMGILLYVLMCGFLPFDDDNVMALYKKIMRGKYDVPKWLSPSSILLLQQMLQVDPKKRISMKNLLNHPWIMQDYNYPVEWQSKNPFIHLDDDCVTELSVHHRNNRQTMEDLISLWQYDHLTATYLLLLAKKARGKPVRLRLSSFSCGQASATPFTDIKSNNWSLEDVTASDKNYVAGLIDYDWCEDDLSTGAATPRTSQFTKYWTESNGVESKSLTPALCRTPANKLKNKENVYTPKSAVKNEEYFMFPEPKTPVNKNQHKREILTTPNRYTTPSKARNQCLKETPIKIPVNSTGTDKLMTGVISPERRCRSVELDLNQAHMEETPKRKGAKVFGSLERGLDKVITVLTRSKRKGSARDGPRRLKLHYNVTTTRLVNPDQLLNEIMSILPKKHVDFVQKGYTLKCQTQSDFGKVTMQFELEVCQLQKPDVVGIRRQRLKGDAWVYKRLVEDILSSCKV
For assay [7], the target named is Ribosomal protein S6 kinase alpha-2 (Homo sapiens) (UniProt Q15349). As to the kind of experiment: Selectivity interaction (Ambit KINOMEscan and KiNATiv profiling in Jurkat cells) EUB0000090b RPS6KA2. As to conditions: at 1 µM. It counts as cell-based.
In assay [8] the target is Calcium/calmodulin-dependent protein kinase kinase 1 (Homo sapiens) (UniProt Q8N5S9). Put plainly: Selectivity interaction (KinomeScan (DiscoverX)) EUB0001049a CAMKK1. As to conditions: at 1 µM.
Chain of Calcium/calmodulin-dependent protein kinase kinase 1 (Homo sapiens) (Q8N5S9 whole entry, looked up): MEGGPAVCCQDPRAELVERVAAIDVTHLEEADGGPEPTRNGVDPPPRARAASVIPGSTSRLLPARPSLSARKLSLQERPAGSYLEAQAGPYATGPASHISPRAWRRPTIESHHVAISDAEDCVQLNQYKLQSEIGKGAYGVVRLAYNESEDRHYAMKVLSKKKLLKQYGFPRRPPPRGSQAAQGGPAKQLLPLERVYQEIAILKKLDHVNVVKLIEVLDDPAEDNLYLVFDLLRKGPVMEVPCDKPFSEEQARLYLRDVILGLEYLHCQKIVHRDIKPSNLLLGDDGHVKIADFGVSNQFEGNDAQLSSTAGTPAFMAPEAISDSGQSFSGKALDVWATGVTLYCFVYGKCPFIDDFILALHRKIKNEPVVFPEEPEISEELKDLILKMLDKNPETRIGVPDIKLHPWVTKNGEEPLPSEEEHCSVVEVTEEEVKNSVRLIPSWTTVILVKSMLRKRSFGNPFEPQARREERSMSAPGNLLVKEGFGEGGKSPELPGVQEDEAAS
Assay [9] has as its target Tyrosine-protein kinase Lck (Homo sapiens, UniProt P06239). Put plainly: Selectivity interaction (Panel of kinases, GPCRs, ion channels and transporters (enzymatic assay)) EUB0000223bCl LCK.
In assay [10] the target is Tyrosine-protein kinase ABL1 (Homo sapiens, UniProt P00519). As to the kind of experiment: Selectivity interaction (Upstate Kinase Profiler service (Millipore)) EUB0000056c ABL1. As to conditions: at 1 µM.
Chain of Tyrosine-protein kinase ABL1 (P00519 whole entry): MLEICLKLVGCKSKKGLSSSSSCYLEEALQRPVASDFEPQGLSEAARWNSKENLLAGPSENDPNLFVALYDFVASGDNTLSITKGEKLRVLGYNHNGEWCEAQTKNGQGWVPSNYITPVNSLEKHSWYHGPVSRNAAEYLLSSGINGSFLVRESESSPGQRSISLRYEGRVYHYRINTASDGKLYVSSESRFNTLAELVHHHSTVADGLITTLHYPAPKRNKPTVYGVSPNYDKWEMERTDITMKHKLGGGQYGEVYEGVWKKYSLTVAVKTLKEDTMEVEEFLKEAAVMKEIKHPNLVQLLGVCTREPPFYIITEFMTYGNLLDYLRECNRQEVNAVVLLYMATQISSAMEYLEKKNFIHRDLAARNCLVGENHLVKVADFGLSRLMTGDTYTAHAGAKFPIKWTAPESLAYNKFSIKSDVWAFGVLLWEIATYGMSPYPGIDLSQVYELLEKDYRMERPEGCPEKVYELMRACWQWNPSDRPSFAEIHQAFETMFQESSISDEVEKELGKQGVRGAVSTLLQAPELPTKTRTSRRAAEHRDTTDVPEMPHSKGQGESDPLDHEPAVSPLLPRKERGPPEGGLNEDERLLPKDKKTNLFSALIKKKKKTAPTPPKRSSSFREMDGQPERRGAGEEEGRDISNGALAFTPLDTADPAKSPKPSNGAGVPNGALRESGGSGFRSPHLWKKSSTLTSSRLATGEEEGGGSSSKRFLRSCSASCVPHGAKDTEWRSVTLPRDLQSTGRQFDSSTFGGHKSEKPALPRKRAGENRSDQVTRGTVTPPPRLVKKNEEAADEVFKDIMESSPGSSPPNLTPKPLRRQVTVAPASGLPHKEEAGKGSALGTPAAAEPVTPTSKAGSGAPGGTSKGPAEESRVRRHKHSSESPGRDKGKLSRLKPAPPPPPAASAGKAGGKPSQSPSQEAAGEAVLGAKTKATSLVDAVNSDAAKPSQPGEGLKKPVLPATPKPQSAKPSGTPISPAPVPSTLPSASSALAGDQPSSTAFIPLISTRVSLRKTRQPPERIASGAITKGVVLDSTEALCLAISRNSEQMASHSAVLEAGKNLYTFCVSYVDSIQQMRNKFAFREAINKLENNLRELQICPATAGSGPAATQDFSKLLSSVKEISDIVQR
Assay [11] deals with T3, Interleukin-1 receptor-associated kinase 3 (Homo sapiens) (UniProt Q9Y616).
T3 sequence (whole entry): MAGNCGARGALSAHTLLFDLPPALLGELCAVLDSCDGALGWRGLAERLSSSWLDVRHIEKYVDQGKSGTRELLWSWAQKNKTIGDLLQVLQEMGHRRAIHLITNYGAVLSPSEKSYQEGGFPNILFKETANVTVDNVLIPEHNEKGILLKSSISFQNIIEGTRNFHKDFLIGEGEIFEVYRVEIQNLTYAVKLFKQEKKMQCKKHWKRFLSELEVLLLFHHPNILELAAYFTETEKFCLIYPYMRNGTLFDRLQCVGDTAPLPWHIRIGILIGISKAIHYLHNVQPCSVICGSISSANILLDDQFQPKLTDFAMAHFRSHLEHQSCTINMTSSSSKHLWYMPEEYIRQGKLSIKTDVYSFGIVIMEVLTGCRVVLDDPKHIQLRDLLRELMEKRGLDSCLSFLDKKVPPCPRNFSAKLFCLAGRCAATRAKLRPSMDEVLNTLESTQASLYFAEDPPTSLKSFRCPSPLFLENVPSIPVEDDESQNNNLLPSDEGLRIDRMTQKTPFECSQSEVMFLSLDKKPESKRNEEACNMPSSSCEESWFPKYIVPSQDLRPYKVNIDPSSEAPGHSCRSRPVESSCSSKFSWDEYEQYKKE
Put plainly: Selectivity interaction (KinomeScan (DiscoverX)) EUB0000618a IRAK3. As to conditions: at 10 µM.

In assay [12] the target is Dual specificity protein kinase CLK4 (Homo sapiens, UniProt Q9HAZ1). As to the kind of experiment: Selectivity interaction (KinomeScan (DiscoverX)) EUB0000229b CLK4. As to conditions: at 10 µM.
Chain of Dual specificity protein kinase CLK4 (Q9HAZ1 whole entry, looked up): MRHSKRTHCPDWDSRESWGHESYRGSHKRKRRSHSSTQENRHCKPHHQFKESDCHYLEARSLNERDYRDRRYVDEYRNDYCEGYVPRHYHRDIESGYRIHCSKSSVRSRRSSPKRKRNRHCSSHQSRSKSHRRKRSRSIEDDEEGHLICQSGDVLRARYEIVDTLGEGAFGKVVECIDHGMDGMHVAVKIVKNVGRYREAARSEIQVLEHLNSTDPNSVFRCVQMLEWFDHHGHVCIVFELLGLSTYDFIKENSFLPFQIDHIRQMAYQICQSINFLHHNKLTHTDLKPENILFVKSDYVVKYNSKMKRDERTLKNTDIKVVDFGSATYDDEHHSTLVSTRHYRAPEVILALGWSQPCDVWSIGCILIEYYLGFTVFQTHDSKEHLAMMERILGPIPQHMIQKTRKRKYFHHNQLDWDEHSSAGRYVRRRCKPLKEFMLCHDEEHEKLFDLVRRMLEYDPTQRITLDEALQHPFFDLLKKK

Chain of Tyrosine-protein kinase Lck (P06239 2-509 limits assumed): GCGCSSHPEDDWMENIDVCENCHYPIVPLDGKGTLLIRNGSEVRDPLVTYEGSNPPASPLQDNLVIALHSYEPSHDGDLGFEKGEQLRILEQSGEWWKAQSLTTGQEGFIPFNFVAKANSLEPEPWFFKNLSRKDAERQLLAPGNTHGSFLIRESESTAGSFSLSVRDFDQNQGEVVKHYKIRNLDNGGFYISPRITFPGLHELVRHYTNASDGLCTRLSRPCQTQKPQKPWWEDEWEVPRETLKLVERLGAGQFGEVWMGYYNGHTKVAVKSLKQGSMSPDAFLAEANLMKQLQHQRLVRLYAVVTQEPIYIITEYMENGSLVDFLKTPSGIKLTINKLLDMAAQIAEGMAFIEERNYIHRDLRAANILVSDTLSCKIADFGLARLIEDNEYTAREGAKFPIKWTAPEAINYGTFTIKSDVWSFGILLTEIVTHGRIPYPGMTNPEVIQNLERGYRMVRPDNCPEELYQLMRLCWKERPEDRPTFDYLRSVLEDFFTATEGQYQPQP

As for `Cn1cc(-n2cnc3c(NCc4nc5cc(Cl)c(Cl)cc5[nH]4)nc(N4CCOCC4)nc32)cn1`, the % of control in assay [1] came to 8.85%.

In assay [2], `N#Cc1cccc(-c2c[nH]c3ncnc(N4CCOCC4)c23)c1` displayed a % of control of 92%.

In the case of `CCN(CC)CCCCNc1ncc2cc(-c3cc(OC)cc(OC)c3)c(NC(=O)NC(C)(C)C)nc2n1`, the % of control in assay [3] came out at 100%.

Compound `CNC(=O)Nc1ccc(-c2nc(N3CC4CCC(C3)O4)c3cnn(C4CCC5(CC4)OCCO5)c3n2)cc1` gave a % of control in assay [4] of 55%.

Compound `Cc1cnc(Nc2ccc(F)cc2Cl)nc1-c1c[nH]c(C(=O)N[C@H](CO)c2cccc(Cl)c2)c1` came in with a % of inhibition in [5] of 2%.

For the compound `C=CC(=O)Nc1cc(-n2c(=O)ccc3cnc4ccc(-c5ccc(NS(C)(=O)=O)cc5)cc4c32)ccc1C`, the % of control amounted to 100% in [6] (at 1 µM) and 75% in assay [6] (at 10 µM).

The compound `CN(C)C/C=C/C(=O)Nc1ccc(C(=O)N2CCCC(Nc3ncc(Cl)c(-c4c[nH]c5ccccc45)n3)C2)cc1` (stereo not drawn) came in with a % of control in assay [7] of 55%.

As to `COc1cc(Nc2nc(C)cc(-c3cnn4nc(OC)ccc34)n2)cc(C(F)(F)F)c1`, the % of control in assay [8] was determined as 95%.

`COc1cc(C(=O)N2CC[C@@H](O)[C@@H](N)C2)cc2nc(-c3cc4ccccc4n3CC3CC3)n(C)c12` returned a pXC50 in assay [9] of less than 4.5 M.

As for `Cc1ccc(-c2ccc3c(ccc4sc5c(c43)NC[C@@H](C)NC5=O)n2)cn1`, the % of inhibition in [10] is 18%.

Take `O[C@H]1CC[C@H](Nc2ncc3nc(Nc4c(F)cc(F)cc4F)n([C@H]4CCOC4)c3n2)CC1`: the % of control in assay [11] was determined as 100%.

In turn, `COc1cc(N(C)c2ccnc3ccc(C(F)(F)F)cc23)cc(OC)c1OC` returned a % binding in assay [12] of 88%.
